{
  "source": "patent US10206934B2",
  "about": "“Implants and methods for treating inflammation-mediated conditions of the eye” (Allergan, Inc., priority 2000, dated 2019)",
  "origin": "cited, not measured here",
  "conditions": "fold less potent; 25 mg equivalent to 1 mg dexamethasone",
  "data": [
    {"smiles": "C[C@]12CCC(=O)C=C1CC[C@@H]1[C@@H]2[C@@H](O)C[C@@]2(C)[C@H]1CC[C@]2(O)C(=O)CO", "note": "[hydrocortisone]", "values": [
      {"measurement": "Potency relative to dexamethasone", "value": "approximately twentyfivefold"}
    ]}
  ]
}
